System: Endogenous Huntingtin Protein
Assay: Endogenous Huntingtin Protein Assay (ELISA-based Meso Scale Discovery electrochemiluminescence)
Format: cell-based
Settings: MSD electrochemiluminescence, Table 1
Procedure, shortened: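 Huntingtin was captured overnight at 4 °C on plates coated with 1 μg/mL MW1 (polyQ-expanded) or MAB2166 antibody and BSA-blocked. Detection used a rabbit monoclonal and then a SULFO-TAG goat anti-rabbit antibody (0.25 μg/mL, 1 h each, room temperature). Signal was read by electrochemiluminescence.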

SMILES | IC50 [nM]
CN(c1ncc(-c2ccc(-c3ncco3)cc2O)nn1)C1CC(C)(C)NC(C)(C)C1 [Cpd 7, 2-{3-[methyl(2,2,6,6-tetramethylpiperidin-4-yl)amino]-1,2,4-triazin-6-yl}-5-(1,3-oxazol-2-yl)phenol] | ≤ 100
CN(c1ncc(-c2ccc(-n3nccn3)cc2O)nn1)C1CC(C)(C)NC(C)(C)C1 [Cpd 63, 2-{3-[methyl(2,2,6,6-tetramethylpiperidin-4-yl)amino]-1,2,4-triazin-6-yl}-5-(2H-1,2,3-triazol-2-yl)phenol] | ≤ 100
CN[C@@H]1CN(c2ncc(-c3ccc(-c4cn[nH]c4)cc3O)nn2)C[C@H]1OC [Cpd 346, 2-{3-[(3R,4R)-3-methoxy-4-(methylamino)pyrrolidin-1-yl]-1,2,4-triazin-6-yl}-5-(1H-pyrazol-4-yl)phenol] | > 500
CC1(C)CC(Nc2ncc(-c3ccc(-n4nccn4)cc3O)nn2)CC(C)(C)N1 [Cpd 121, 2-{3-[(2,2,6,6-tetramethylpiperidin-4-yl)amino]-1,2,4-triazin-6-yl}-5-(2H-1,2,3-triazol-2-yl)phenol] | ≤ 100
CC1(C)CC(Nc2cnc(-c3ccc(-n4nccn4)cc3O)nn2)CC(C)(C)N1 [Cpd 401, 2-{6-[(2,2,6,6-tetramethylpiperidin-4-yl)amino]-1,2,4-triazin-3-yl}-5-(2H-1,2,3-triazol-2-yl)phenol] | ≤ 100
Oc1cc(-c2cn[nH]c2)ccc1-c1cnc(N2C[C@H]3CNCC[C@H]3C2)nn1 [Cpd 327, 2-{3-[(3aR,7aR)-octahydro-2H-pyrrolo[3,4-c]pyridin-2-yl]-1,2,4-triazin-6-yl}-5-(1H-pyrazol-4-yl)phenol] | ≤ 100
CN(c1ncc(-c2ccc(-c3cnco3)cc2O)nn1)C1CC(C)(C)NC(C)(C)C1 [Cpd 91, 2-{3-[methyl(2,2,6,6-tetramethylpiperidin-4-yl)amino]-1,2,4-triazin-6-yl}-5-(1,3-oxazol-5-yl)phenol] | ≤ 100
CC1(C)CC(Nc2ncc(-c3ccc(-n4nccn4)cc3O)nn2)C(F)C(C)(C)N1 (centres unmarked) [Cpd 324, 2-{3-[(3-fluoro-2,2,6,6-tetramethylpiperidin-4-yl)amino]-1,2,4-triazin-6-yl}-5-(2H-1,2,3-triazol-2-yl)phenol] | ≤ 100
CN(c1ncc(-c2ccc(-c3cccnn3)cc2O)nn1)C1CC(C)(C)NC(C)(C)C1 [Cpd 84, 2-{3-[methyl(2,2,6,6-tetramethylpiperidin-4-yl)amino]-1,2,4-triazin-6-yl}-5-(pyridazin-3-yl)phenol] | ≤ 100
CN(c1ncc(-c2ccc(-c3cnc4[nH]ncc4n3)cc2O)nn1)C1CC(C)(C)NC(C)(C)C1 [Cpd 194, 2-{3-[methyl(2,2,6,6-tetramethylpiperidin-4-yl)amino]-1,2,4-triazin-6-yl}-5-(1H-pyrazolo[3,4-b]pyrazin-5-yl)phenol] | ≤ 100
CN(c1ncc(-c2ccc(-c3cc(=O)n(C)cn3)cc2O)nn1)C1CC(C)(C)NC(C)(C)C1 [Cpd 146, 6-(3-hydroxy-4-{3-[methyl(2,2,6,6-tetramethylpiperidin-4-yl)amino]-1,2,4-triazin-6-yl}phenyl)-3-methylpyrimidin-4(3H)-one] | ≤ 100
COc1cc(-c2ccc(-c3cnc(N(C)C4CC(C)(C)NC(C)(C)C4)nn3)c(O)c2)ncn1 [Cpd 2, 5-(6-methoxypyrimidin-4-yl)-2-{3-[methyl(2,2,6,6-tetramethylpiperidin-4-yl)amino]-1,2,4-triazin-6-yl}phenol] | ≤ 100
Oc1cc(-c2cn[nH]c2)ccc1-c1cnc(N2CC3(CNC3)C2)nn1 [Cpd 118, 2-[3-(2,6-diazaspiro[3.3]heptan-2-yl)-1,2,4-triazin-6-yl]-5-(1H-pyrazol-4-yl)phenol] | 100 to 500
CC(C)(C)N[C@@H]1CCN(c2ncc(-c3ccc(-c4c[nH]nc4F)cc3O)nn2)C1 [Cpd 379, 2-{3-[(3R)-3-(tert-butylamino)pyrrolidin-1-yl]-1,2,4-triazin-6-yl}-5-(3-fluoro-1H-pyrazol-4-yl)phenol] | ≤ 100
CN(c1ncc(-c2ccc(-c3cc(C#N)c4nccn4n3)cc2O)nn1)C1CC(C)(C)NC(C)(C)C1 [Cpd 344, 6-(3-hydroxy-4-{3-[methyl(2,2,6,6-tetramethylpiperidin-4-yl)amino]-1,2,4-triazin-6-yl}phenyl)imidazo[1,2-b]pyridazine-8-carbonitrile] | ≤ 100
Oc1cc(-c2cn[nH]c2)ccc1-c1cnc(N2CCC(CNC3CCCOC3)C2)nn1 (centres unmarked) [Cpd 404, 2-[3-(3-{[(oxan-3-yl)amino]methyl}pyrrolidin-1-yl)-1,2,4-triazin-6-yl]-5-(1H-pyrazol-4-yl)phenol] | ≤ 100
Cc1csc(-c2ccc(-c3cnc(N(C)C4CC(C)(C)NC(C)(C)C4)nn3)c(O)c2)c1 [Cpd 54, 2-{3-[methyl(2,2,6,6-tetramethylpiperidin-4-yl)amino]-1,2,4-triazin-6-yl}-5-(4-methylthiophen-2-yl)phenol] | > 500
Oc1cc(-c2cn[nH]c2)ccc1-c1cnc(N2CCC3(CCNC3)C2)nn1 (centres unmarked) [Cpd 354, 2-[3-(2,7-diazaspirol{4.4}nonan-2-yl)-1,2,4-triazin-6-yl]-5-(1H-pyrazol-4-yl)phenol] | ≤ 100
CC(C)(C)NC1CCN(c2ncc(-c3ccc(-c4c[nH]nn4)cc3O)nn2)C1 (centres unmarked) [Cpd 225, 2-{3-[3-(tert-butylamino)pyrrolidin-1-yl]-1,2,4-triazin-6-yl}-5-(1H-1,2,3-triazol-4-yl)phenol] | ≤ 100
[2H]C([2H])([2H])n1cc(-c2ccc(-c3ncc(NC4CC(C)(C)NC(C)(C)C4)nn3)c(O)c2)cn1 [Cpd 424, 5-[1-(^2H3)methyl-1H-pyrazol-4-yl]-2-{6-[(2,2,6,6-tetramethylpiperidin-4-yl)amino]-1,2,4-triazin-3-yl}phenol] | ≤ 100
CC(C)NC1CCN(c2ncc(-c3ccc(-c4cc(=O)n(C)cn4)cc3O)nn2)C1 (centres unmarked) [Cpd 234, 6-[3-hydroxy-4-(3-{3-[(propan-2-yl)amino]pyrrolidin-1-yl}-1,2,4-triazin-6-yl)phenyl]-3-methylpyrimidin-4(3H)-one] | 100 to 500
CN(c1ncc(-c2ccc(-c3ccc4ncoc4c3)cc2O)nn1)C1CC(C)(C)NC(C)(C)C1 [Cpd 145, 5-(1,3-benzoxazol-6-yl)-2-{3-[methyl(2,2,6,6-tetramethylpiperidin-4-yl)amino]-1,2,4-triazin-6-yl}phenol] | ≤ 100
CC1(C)CC(Nc2ncc(-c3ccc(-n4cc(F)cn4)cc3O)nn2)CC(C)(C)N1 [Cpd 276, 5-(4-fluoro-1H-pyrazol-1-yl)-2-{3-[(2,2,6,6-tetramethylpiperidin-4-yl)amino]-1,2,4-triazin-6-yl}phenol] | ≤ 100
CC(C)(C)NC1CCN(c2ncc(-c3ccc(-n4nccn4)cc3O)nn2)C1 (stereo not drawn) [Cpd 204, 2-{3-[3-(tert-butylamino)pyrrolidin-l-yl]-1,2,4-triazin-6-yl}-5-(2H-1,2,3-triazol-2-yl)phenol] | ≤ 100
CN(c1ncc(-c2ccc(-c3ccnc(O)c3)cc2O)nn1)C1CC(C)(C)NC(C)(C)C1 [Cpd 5, 4-(3-hydroxy-4-{3-[methyl(2,2,6,6-tetramethylpiperidin-4-yl)amino}-1,2,4-triazin-6-yl}phenyl)pyridin-2-ol] | ≤ 100
CN1CCC2(CC1)CN(c1ncc(-c3ccc(-n4ccnc4)cc3O)nn1)C2 [Cpd 231, 5-(1H-imidazol-1-yl)-2-[3-(7-methyl-2,7-diazaspiro[3.5]nonan-2-yl)-1,2,4-triazin-6-yl]phenol] | 100 to 500

— patent US11780839B2, “Compounds for treating Huntington's disease” (PTC THERAPEUTICS, INC., priority 2018, dated 2023)
